In US5208263A, “Anti-androgen compounds” (Arch Development Corporation, priority 1989, dated 1993):
Like-named read-outs stand apart in the source and are kept apart here.

What was measured:
[1] = molecular target: T1, androgen receptor of rat ventral prostate (Rattus norvegicus, UniProt P15207); experiment: Competition with [3H]R1881 for androgen receptor binding, cell-free assay (Table 1)
T1 construct: androgen receptors isolated, as described in Chang, C., et al., J. Steroid Biochem., 27:123 (1987), from rat ventral prostate; from tissue; host or cells: rat ventral prostate
T1 sequence (P15207 1-902): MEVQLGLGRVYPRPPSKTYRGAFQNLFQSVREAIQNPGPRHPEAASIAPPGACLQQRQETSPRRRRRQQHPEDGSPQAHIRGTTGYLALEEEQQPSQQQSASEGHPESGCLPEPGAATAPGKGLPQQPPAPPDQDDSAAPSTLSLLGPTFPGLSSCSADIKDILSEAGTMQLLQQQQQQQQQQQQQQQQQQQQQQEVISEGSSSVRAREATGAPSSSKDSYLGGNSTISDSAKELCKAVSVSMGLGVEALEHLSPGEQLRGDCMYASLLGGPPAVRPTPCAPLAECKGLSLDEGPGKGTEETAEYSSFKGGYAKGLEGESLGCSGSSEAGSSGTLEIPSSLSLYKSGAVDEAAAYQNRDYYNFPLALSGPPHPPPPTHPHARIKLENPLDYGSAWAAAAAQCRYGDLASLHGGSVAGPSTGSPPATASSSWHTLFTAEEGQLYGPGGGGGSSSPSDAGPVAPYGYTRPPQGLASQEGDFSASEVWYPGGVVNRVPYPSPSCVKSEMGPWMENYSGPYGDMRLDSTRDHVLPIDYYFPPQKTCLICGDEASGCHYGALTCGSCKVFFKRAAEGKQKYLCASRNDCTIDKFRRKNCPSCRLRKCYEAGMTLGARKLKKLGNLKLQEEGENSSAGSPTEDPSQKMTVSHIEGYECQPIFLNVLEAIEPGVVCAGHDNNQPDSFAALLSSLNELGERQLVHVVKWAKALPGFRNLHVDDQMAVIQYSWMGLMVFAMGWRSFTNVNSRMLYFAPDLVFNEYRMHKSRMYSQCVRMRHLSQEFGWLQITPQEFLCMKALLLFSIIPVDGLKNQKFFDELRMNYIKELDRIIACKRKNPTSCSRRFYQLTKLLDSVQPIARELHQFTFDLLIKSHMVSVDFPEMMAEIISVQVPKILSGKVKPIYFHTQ

androgen receptors = conditions: Chang et al. 1987; cited from earlier work
ventral prostate = conditions: rats; Chang et al. 1987; cited from earlier work
[2] = in parentheses, relative to R1881 = 100.00, cell-free, rat ventral prostate

Row | Molecule | IC50 [1] [µM] | Relative receptor binding activity (RBA) [1, 2] | Relative receptor binding activity (RBA) [1] | IC50 ([1]; read-out: IC50 (concentration of test compound needed to show 50% inhibition of [3H]R1881 binding), [3H]R1881 (17a-methyltrienolone) binding, androgen receptor of rat ventral prostate, cell-free) [µM] | interaction with androgen receptors in cell-free systems (androgen receptors) | inhibition of growth of the ventral prostate (ventral prostate)
1 | c1cc2c(c3c1CCCC3)CCCC2 [1,2,3,4,5,6,7,8-octahydro-phenanthrene, reference compound] | 200 | 0.01 | – | – | – | –
2 | c1ccc2c(c1)CCc1ccccc1C2 [10,11-dihydro-5H-dibenzo-[a,d]cycloheptene, reference compound] | 60 | 0.03 | – | – | – | –
3 | 1-[2-(9(or 10)-methyl-9,10-dihydrophenanthryl)]-1-ethanol [Compound 11] | – | – | 0.29 | 6.8 | – | –
4 | c1ccc2c(c1)CCc1ccccc1-2 [9,10-dihydrophenanthrene, reference compound] | 10 | 0.20 | – | – | interacts with androgen receptors in cell-free systems | inhibits the growth of the ventral prostate in rats
5 | O=C1CCc2c1ccc1c2CCc2ccccc2-1 (racemic) [Compound 6, 6,7,16,17-Tetrahydro-15H-cyclopenta[a]phenanthren-17-one] | 17.8 | – | 0.11 | – | – | –
6 | O=C1CCc2c(ccc3c2CCc2c(O)cccc2-3)C1 [Compound 22, 4'-oxo-7,8-cyclohexeno-9,10-dihydrophenanthren-1-ol] | 1.3 | 1.53 | – | – | – | –
7 | CC(O)c1ccc2c(c1)CCc1ccccc1-2 (stereo not shown) [Compound 9, 1-[2-(9,10-Dihydrophenanthryl)]-1-ethanol] | 2.6 | 0.77 | – | – | – | –
8 | OC1CCc2c1ccc1c2CCc2ccccc2-1 (stereo not shown) [Compound 7, 6,7,16,17-tetrahydro-15H-cyclo-penta[a]phen-anthren-17-ol] | 4.2 | – | 0.48 | – | – | –
9 | c1ccc2c(c1)ccc1ccccc12 [phenanthrene, reference compound] | 800 | 0.0025 | – | – | – | –
10 | Oc1ccc2c(c1)CCc1ccccc1-2 [Compound 13, 2-Hydroxy-9,10-dihydrophenanthrene] | 7.9 | 0.25 | – | – | – | –
11 | O=C1CCc2c(ccc3c2ccc2c(O)cccc23)C1 [Compound 25, 4'-oxo-7,8-cyclohexenophenanthren-1-ol] | > 100 | – | < 0.02 | – | – | –
12 | OCC(O)c1ccc2c(c1)CCc1ccccc1-2 (stereo not shown) [Compound 27, 2-(2',3'-dihydroxyethyl)-9,10-dihydrophenanthrene] | 47.9 | 0.04 | – | – | – | –
13 | OCCc1ccc2c(c1)CCc1ccccc1-2 [Compound 26, 2-(2'-hydroxyethyl)-9,10-dihydrophenanthrene] | 3.6 | 0.56 | – | – | – | –
